Experiments:
Type in all cases: cell-based
[1] = test system: MKN-45 cells; experiment: Cancer cell proliferation inhibition (Cell Counting Kit-8), gastric cancer cell line; details: 1000 nM, cultured seven to 11 days
Source text: (§1) Among solid cancer cells, in G401 cells in which expression of SMARCB1, which is a member of switch/sucrosenon-fermenting (SWI/SNF), is defective as a cell line of a rhabdoid tumor in which a therapeutic effect may be expected through dual inhibition of EZH1/2, and MKN-45 cells in which expression of ARID1A, which is a member of SWI/SNF, is defective as a gastric cancer cell line, a proliferation inhibitory ability of the 1,3-benzodioxole derivative compounds represented by chemical formula I of the present invention was evaluated.
(§2) Each cell line (G401 cell, MKN-45 cell, Lovo cell, SW-13 cell, MIA-PaCa-2, NCI-H1299) of Table 2 below was cultured using RPMI1640, McCoy's 5a, L-15 or DMEM containing 10% fetal bovine serum, and the cells were seeded into wells of a 96-well culture dish at 100 to 1,000 cells each, and a test substance 1000 nM was cultured for seven to 11 days after drug treatment. After the culture, the cells were measured according to a manufacturer's instructions using Cell Counting Kit-8, and a cell proliferation inhibitory effect (% inhibition rate) of the test substance was obtained.
(§3) The cell proliferation inhibitory effect (% inhibition rate) of the test substance was calculated using a following equation. % inhibition rate = {1−(testgroup/controlgroup)} X 100 [formula]

[2] = test system: Lovo cells; experiment: Cancer cell proliferation inhibition (Cell Counting Kit-8), colorectal cancer cell line; details: 1000 nM, cultured seven to 11 days
Experimental: (§4) In addition, as one example of solid cancer in which an overexpression of EZH2 and a consequent disease association therebetween is reported, a proliferation inhibitory activity of the 1,3-benzodioxole derivative compounds represented by chemical formula I of the present invention was evaluated in Lovo cells as a colorectal cancer cell line, SW-13 cells as an adrenal cancer cell line, MIA-PaCa-2 cells as a pancreatic cancer cell line, and NCI-H1299 cells as a lung cancer cell line.
as §2, §3

[3] = test system: SW-13 cells; experiment: Cancer cell proliferation inhibition (Cell Counting Kit-8), adrenal cancer cell line; details: 1000 nM, cultured seven to 11 days
Experimental: as §4, §2, §3

[4] = test system: NCI-H1299 cells; experiment: Cancer cell proliferation inhibition (Cell Counting Kit-8), lung cancer cell line; details: 1000 nM, cultured seven to 11 days
Experimental: as §4, §2, §3

[5] = test system: G401 cells; experiment: Cancer cell proliferation inhibition (Cell Counting Kit-8), rhabdoid tumor cell line; details: 1000 nM, cultured seven to 11 days; 1 µM
Source text: as §1, §2, §3

[6] = test system: MIA-PaCa-2 cells; experiment: Cancer cell proliferation inhibition (Cell Counting Kit-8), pancreatic cancer cell line; details: 1000 nM, cultured seven to 11 days
Experimental: as §4, §2, §3

Row | SMILES | % inhibition rate MKN -45 ([1]; 1 µM) | % inhibition rate LoVo ([2]; 1 µM) | % inhibition rate SW-13 [3] | % inhibition rate NCI-H129 9 [4] | % inhibition rate G401 [5] | % inhibition rate MIA-Paca2 [6] | % inhibition rate LoVo [2] | % inhibition rate SW-13 ([3]; 1 µM) | % inhibition rate MKN -45 [1] | % inhibition rate NCI-H129 9 ([4]; 1 µM) | % inhibition rate MIA-Paca2 ([6]; 1 µM)
1 | CSc1cc(C)[nH]c(=O)c1CNC(=O)c1cc(-c2ccc(N3C[C@@H](C)O[C@@H](C)C3)nc2)c2c(c1C)OC(C)(C1CCN(CC(F)(F)F)CC1)O2 (single isomer, unassigned) [Compound 45] | + (+: ≤30%) | ++ (++: more than 30% and less than 70%) | ++ (++: more than 30% and less than 70%) | ++ (++: more than 30% and less than 70%) | + (+: ≤30%) | + (+: ≤30%) |  |  |  |  | 
2 | CSc1cc(C)[nH]c(=O)c1CNC(=O)c1cc(-c2ccc(N3C[C@@H](C)O[C@@H](C)C3)nc2)c2c(c1C)OC(C)(C1CCN(CC(F)F)CC1)O2 (single isomer, unassigned) [Compound 48] | + (+: ≤30%) |  |  | ++ (++: more than 30% and less than 70%) | + (+: ≤30%) | + (+: ≤30%) | +++ (+++: ≥70%) | + (+: ≤30%) |  |  | 
3 | CCN1CCC(C2(C)Oc3c(-c4ccc(N5C[C@@H](C)O[C@@H](C)C5)nc4)cc(C(=O)NCc4c(SC)cc(C)[nH]c4=O)c(C)c3O2)CC1 (single isomer, unassigned) [Compound 50] |  | + (+: ≤30%) |  | ++ (++: more than 30% and less than 70%) | + (+: ≤30%) | + (+: ≤30%) |  | + (+: ≤30%) | + (+: ≤30%) |  | 
4 | CSc1cc(C)[nH]c(=O)c1CNC(=O)c1cc(-c2ccc(N3C[C@@H](C)O[C@@H](C)C3)nc2)c2c(c1C)OC(C)(C1CCN(C(C)C)CC1)O2 (single isomer, unassigned) [Compound 52] |  | + (+: ≤30%) |  |  | + (+: ≤30%) | + (+: ≤30%) |  | + (+: ≤30%) | + (+: ≤30%) | + (+: ≤30%) | 
5 | CSc1cc(C)[nH]c(=O)c1CNC(=O)c1cc(-c2ccc(N3C[C@@H](C)O[C@@H](C)C3)nc2)c2c(c1C)OC(C)(C1CCN(C3CCCCC3)CC1)O2 (single isomer, unassigned) [Compound 54] |  | ++ (++: more than 30% and less than 70%) | ++ (++: more than 30% and less than 70%) |  | ++ (++: more than 30% and less than 70%) | + (+: ≤30%) |  |  | + (+: ≤30%) | + (+: ≤30%) | 
6 | CSc1cc(C)[nH]c(=O)c1CNC(=O)c1cc(-c2ccc(N3C[C@@H](C)O[C@@H](C)C3)nc2)c2c(c1C)OC(C)(C1CCN(CCc3ccccc3)CC1)O2 (single isomer, unassigned) [Compound 56] | + (+: ≤30%) |  |  |  | ++ (++: more than 30% and less than 70%) | + (+: ≤30%) | +++ (+++: ≥70%) | + (+: ≤30%) |  | + (+: ≤30%) | 
7 | CSc1cc(C)[nH]c(=O)c1CNC(=O)c1cc(-c2ccc(N3C[C@@H](C)O[C@@H](C)C3)nc2)c2c(c1C)OC(C)(C1CCN(CCCC(F)(F)F)CC1)O2 (single isomer, unassigned) [Compound 58] | + (+: ≤30%) | ++ (++: more than 30% and less than 70%) |  |  | + (+: ≤30%) |  |  | + (+: ≤30%) |  | + (+: ≤30%) | + (+: ≤30%)
8 | CSc1cc(C)[nH]c(=O)c1CNC(=O)c1cc(-c2ccc(N3C[C@@H](C)O[C@@H](C)C3)nc2)c2c(c1C)OC(C)(C1CCN(C(=O)C(F)(F)F)CC1)O2 (single isomer, unassigned) [Compound 60] | + (+: ≤30%) |  |  |  | + (+: ≤30%) | + (+: ≤30%) | +++ (+++: ≥70%) | + (+: ≤30%) |  | + (+: ≤30%) | 
9 | CSc1cc(C)[nH]c(=O)c1CNC(=O)c1cc(-c2ccc(N3CCOCC3)nc2)c2c(c1C)OC(C)(C1CCN(CC(F)(F)F)CC1)O2 (single isomer, unassigned) [Compound 63, 2,4-dimethyl-N-((6-methyl-4-(methylthio)-2-oxo-1,2-dihydropyridin-3-yl)methyl)-7-(6-morpholinopyridin-3-yl)-2-(1-(2,2,2-trifluoro)piperidin-4-yl)benzo[d][1,3]dioxole-5-carboxamide] |  | ++ (++: more than 30% and less than 70%) |  |  | + (+: ≤30%) | + (+: ≤30%) |  | + (+: ≤30%) | ++ (++: more than 30% and less than 70%) | + (+: ≤30%) | 
10 | CSc1cc(C)[nH]c(=O)c1CNC(=O)c1cc(-c2ccc(N3CCOCC3)nc2)c2c(c1C)OC(C)(C1CCN(CC(F)F)CC1)O2 (single isomer, unassigned) [Compound 65, 2-(1-(2,2-difluoroethyl)piperidin-4-yl)-2,4-dimethyl-N-((6-methyl-4-(methylthio)-2-oxo-1,2-dihydropyridin-3-yl)methyl)-7-(6-morpholinopyridin-3-yl)benzo[d][1,3]dioxole-5-carboxamide] |  | ++ (++: more than 30% and less than 70%) |  | + (+: ≤30%) | + (+: ≤30%) | + (+: ≤30%) |  | + (+: ≤30%) | ++ (++: more than 30% and less than 70%) |  | 
11 | CCN1CCC(C2(C)Oc3c(-c4ccc(N5CCOCC5)nc4)cc(C(=O)NCc4c(SC)cc(C)[nH]c4=O)c(C)c3O2)CC1 (single isomer, unassigned) [Compound 67, 2-(1-ethylpiperidin-4-yl)-2,4-dimethyl-N-((6-methyl-4-(methylthio)-2-oxo-1,2-dihydropyridin-3-yl)methyl)-7-(6-morpholinopyridin-3-yl)benzo[d][1,3]dioxole-5-carboxamide] | + (+: ≤30%) | + (+: ≤30%) | + (+: ≤30%) | + (+: ≤30%) | + (+: ≤30%) | + (+: ≤30%) |  |  |  |  | 
12 | CSc1cc(C)[nH]c(=O)c1CNC(=O)c1cc(-c2cnc(N3CCOCC3)nc2)c2c(c1C)OC(C)(C1CCN(CC(F)(F)F)CC1)O2 (single isomer, unassigned) [Compound 70, 2,4-dimethyl-N-((6-methyl-4-(methylthio)-2-oxo-1,2-dihydropyridin-3-yl)methyl)-7-(2-morpholinopyrimidine-5-yl)-2-(1-(2,2,2-trifluoro)piperidin-4-yl)benzo[d][1,3]dioxole-5-carboxamide] |  |  |  | + (+: ≤30%) | + (+: ≤30%) | + (+: ≤30%) | +++ (+++: ≥70%) | + (+: ≤30%) | ++ (++: more than 30% and less than 70%) |  | 
13 | CSc1cc(C)[nH]c(=O)c1CNC(=O)c1cc(-c2cnc(N3CCOCC3)nc2)c2c(c1C)OC(C)(C1CCN(CC(F)F)CC1)O2 (single isomer, unassigned) [Compound 72, 2-(1-(2,2-difluoroethyl)piperidin-4-yl)-2,4-dimethyl-N-((6-methyl-4-(methylthio)-2-oxo-1,2-dihydropyridin-3-yl)methyl)-7-(2-morpholinopyrimidin-5-yl)benzo[d][1,3]dioxole-5-carboxamide] |  |  | ++ (++: more than 30% and less than 70%) |  | + (+: ≤30%) | + (+: ≤30%) | +++ (+++: ≥70%) |  | ++ (++: more than 30% and less than 70%) | + (+: ≤30%) | 
14 | CCN1CCC(C2(C)Oc3c(-c4cnc(N5CCOCC5)nc4)cc(C(=O)NCc4c(SC)cc(C)[nH]c4=O)c(C)c3O2)CC1 (single isomer, unassigned) [Compound 74, 2-(1-ethylpiperidin-4-yl)-2,4-dimethyl-N-((6-methyl-4-(methylthio)-2-oxo-1,2-dihydropyridin-3-yl)methyl)-7-(2-morpholinopyrimidin-5-yl)benzo[d][1,3]dioxole-5-carboxamide] | + (+: ≤30%) |  |  | + (+: ≤30%) | + (+: ≤30%) | + (+: ≤30%) | ++ (++: more than 30% and less than 70%) | + (+: ≤30%) |  |  | 
